According to patent US7179821B2, “Method of treating of demyelinating diseases or conditions” (Aventis Pharmaceuticals Inc., priority 2001, dated 2007):
Marks after values point to notes of the source that are not given here.

Experiments:
[1] = tested on: transient focal cerebral ischemia; test: Transient focal cerebral ischemia in rats, lesion size; format: in vivo, rat; settings: 10 mg/kg iv 1 hour after ischemia onset
Procedure: Methods: Male Sprague-Dawley rats [Iffa Credo, France] weighing about 220–240 g were anaesthetized with halothane (1.4%) in a nitrous oxide-oxygen mixture (70:30). Both common carotid arteries (CCAs) were isolated. The left middle cerebral artery (MCA) exposed via a temporal craniotomy was occluded with a microclip, and simultaneously the CCAs were occluded for 1 hour. Both body and cerebral temperatures were kept at normothermia. Following surgery animals were returned to their home cages in a room warmed at 24–26° C.
HP184, dissolved in 1% tween (in injectable sterile water), was administered at 10 and 20 mg/kg iv 1 hour after ischemia onset, and control rats received the vehicle according to the same protocol. At 24 h post-ischemia, a neurological function using a 9 points grading scale was performed blindly.
Thereafter rats were killed and brains were removed. Fresh sections were cut with a brain matrix and stained with triphenyl tetrazolium chloride 2% at 37° C. for 5 min. The sections were then stored in 10% formalin at 4° C. for 24 h. Areas of infarction were measured with an image analyzer (Leica Q500).

[2] = tested on: moderate chronic (35 days post-injury) spinal cord crush; test: Long standing moderate spinal cord crush (35 days), OFT score; format: in vivo, rat
From the text: A tabular representation of the results from both chronic spinal cord injury studies (drugs first administered 25 days after a mild spinal cord crush and 35 days after a moderate spinal cord crush) are shown in Table 5.
One hundred fifty adult female Wistar rats, 250–300 g weight, obtained from Charles River were housed in the McMaster University Health Sciences Centre (HSC) Central Animal Facilities (CAF) for at least one week. During that time they were exposed to the performance tests described below, to ensure they were familiar with them. Rats were handled daily for 2 weeks prior to surgery.
Rats were anesthetized using isoflurane (3–5%): O2 (1 L/min) in an appropriately equipped surgical suite in the CAF. Temgesic (0.03 mg/kg body weight, subcutaneously (SQ)) was administered prior to surgery for pain relief. Spinal cords were crushed (compressed) with a 3.5 mm wide modified coverslip forceps (Blight 1991, procedure revised by Rathbone laboratory). The forceps were closed to 1.4 mm for 15 sec, which produced injury level equivalent to the mid-level (moderate) outcome on the Gruner scale (1996). The compression injury was otherwise performed according to the procedure described by Blight (1991).
Changes in locomotor behaviour and segmental reflexes were assessed up to 5 weeks post injury. Animals were tested in an open field walking task, hind limb placement and foot orientation. The animals were evaluated on days 2, 7, 14, 21, 28 and 35 after surgery. By 35 days after surgery, almost no further spontaneous recovery occurs. Therefore treatment began on day 35.
HP184 was dissolved in sterilized (autoclaved) deionized reverse-osmosis water acidified with glacial acetic acid (0.1 ml acid per 10 ml of water). 4-AP (Sigma, molecular weight 94.12; Jankowska E. et al., 1982; Gruner et al., 1999) was dissolved in physiological saline (0.6 mg/kg b.w.) and was administered by i.p. injection. One group of rats (vehicle control-1) received by oral gavage vehicle. Behaviourial testing was done immediately prior to receiving the gavage and at 3 hours thereafter. Then, the rats were scarified on day 35. All the other rats received either HP184 by oral gavage (0.3, 1, or 3 mg/kg bw depending on the group) or 4-AP (0.6 mg/kg, i.p.) or vehicle (vehicle control-2) once a day on the 35 to 42 days after surgery. On these days behaviourial tests were done immediately prior to receiving the gavage at 3 and 24 hours thereafter. Then, the rats were perfused on day 43 after the last behaviourial testing.
Statistical analyses were performed on a Macintosh computer using GB-Stat ppc 6.5.2. The behavioral scores were analyzed by the Kruskal-Wallis nonparametric analysis of variance (ANOVA). Post hoc comparisons were made using Mann-Whitney U tests.

[3] = tested on: RuR-induced flaccid paralysis; test: Antagonism of ruthenium red (RuR)-induced flaccid paralysis, flagpole test; format: in vivo, mouse
Procedure: Method and Results: Groups of 4–5 mice (CD-1; Charles River; 25–35 grams) were separately but simultaneously injected ip with ruthenium red and vehicle (1% glacial acetic acid), ruthenium red and 4-AP, or ruthenium red and HP 184. The compound known as “8183” was also tested in this paradigm. Starting at 15 minutes after injections, mice were placed near a “flagpole” apparatus and their ability to support their own body weight (ie, to hold on to the flagpole and not fall) was recorded. Results were recorded as the number of mice that could support their own body weight versus the total number of mice tested. All experiments were performed between 2PM and 4:30PM.

acute bladder irritation = test: Bladder irritation in the rat (protamine sulfate/KCl model), continuous open cystometry; format: in vivo; settings: intravenous, cumulative dose-response, urethane anesthetized rats, P=0.0019
Procedure: Fraser et al combined protamine sulfate treatment, thought to breakdown urothelial umbrella cell barrier function, and physiologic urine concentrations of KCl (500 mM). The effects of intravenous HP-184 were compared to vehicle alone (n=4/group) in a cumulative dose-response study in urethane anesthetized rats with acute bladder irritation. Continuous open cystometry, which measures the filling and emptying of the bladder during continuous infusion, was utilized to determine the effect of the drug on bladder irritation. When the bladder is irritated, it contracts more frequently during the same filling rate due to sensitization of C-fiber afferent nerves. FIG. 8 illustrates the dose-dependent decrease in bladder contraction frequency from pre-administration irritation values compared to the effects of vehicle alone.

[4] = 10 mg/kg ip with RuR 30 mg/kg ip, 15 min
[5] = 10 mg/kg ip with RuR 30 mg/kg ip, 30 min
[6] = 10 mg/kg ip with RuR 30 mg/kg ip, 45 min
[7] = 30 mg/kg ip with RuR 30 mg/kg ip, 15 min
[8] = 30 mg/kg ip with RuR 30 mg/kg ip, 30 min
[9] = 30 mg/kg ip with RuR 30 mg/kg ip, 45 min

## CCCN(c1ccncc1F)n1cc(C)c2ccccc21 [HP184, N-(3-fluoro-4-pyridinyl)-N-propyl-3-methyl-1H-indole-1-amine]
[1]; cortex
  reduction of lesion in the cortex: −45%
[1]; measured 24 h post-ischemia
  reduction of brain lesions: 41%
[2]; 3 mg/kg po vs 0.3 and 1 mg/kg, days 35–42
  recovery of locomotor function, comparison of the doses: produced the best recovery of locomotor function
[2]; 3 mpk po
  % possible improvement, moderate: 24.8%*
  Delta of OFT score, Day 35 to Day 39 (moderate): .274
[2]; 3 mpk po daily
  OFT score Day 39 (moderate) 3 hrs after last dose: 4.17 ± .058
[2]; HP184 0.3, 1 or 3 mg/kg po or 4-AP 0.6 mg/kg ip once a day, days 35–42, treatment effect p<0.01
  open field locomotor ability (mean OFT scores) vs vehicle, FIGS. 6a and 6b: significantly different from that of control animals receiving vehicle
[2]; group 3 mpk po, baseline before dosing
  OFT score Day 35 (moderate) prior: 3.89 ± .054
[3]; [4]
  % of mice that could support their own body weight: (93.3%)
  number of mice that could support their own body weight versus total tested: 14 out of 15
[3]; [5]
  % of mice that could support their own body weight: (80%)
  number of mice that could support their own body weight versus total tested: 12 out of 15
[3]; [6]
  % of mice that could support their own body weight: (73.3%)
  number of mice that could support their own body weight versus total tested: 11 out of 15
[3]; [7]
  % of mice that could support their own body weight: (100%)
  number of mice that could support their own body weight versus total tested: 15 out of 15
[3]; [8]
  % of mice that could support their own body weight: (100%)
  number of mice that could support their own body weight versus total tested: 15 out of 15
[3]; [9]
  % of mice that could support their own body weight: (100%)
  number of mice that could support their own body weight versus total tested: 15 out of 15
[3]; ip, doses of Table 3
  antagonism of the flaccid paralysis induced by ip RuR (conclusion): can antagonize the flaccid paralysis
Acute bladder irritation
  bladder contraction frequency in irritated bladders, FIG. 8: significantly decreased bladder contraction frequency in irritated bladders in a dose-dependent fashion
